The nature of data set [1]: Viability assay: effect of selected compounds on viability. It is filed as cell-based. The conditions noted are these: for viability at 1 µM: 1.0 μM compound; for viability at 10 µM: 10 μM compound.
In a further data set the test system is tubulin. Put plainly: Tubulin polymerization assay (Cytoskeleton Inc. kit, fluorescent reporter). Type of data set: biochemical. The conditions noted are these: fluorescence-based polymerization kinetics. How it is done:
Tubulin polymerization was measured using the tubulin polymerization assay kit from Cytoskeleton Inc., which measures tubulin polymerization kinetic via fluorescent enhancement to the incorporation of a fluorescent reporter into microtubules as polymerization takes place.

The test system of data set [2] is high metastatic (DU145LN4) prostate cancer cells. The data set can be described thus: Apoptosis by PARP-1 and Caspase-3 blot after 48 h treatment. It is filed as cell-based. The conditions noted are these: 48 hours after treatment. On the procedure: (§1) Cells were seeded in 6-well dishes at 50% confluence. Cells were treated with the compound OBD9 after 24 hours. 48 hours later, cells were lysed with lysis buffer and protein was collected and quantified with the BCA assay (Invitrogen). 20 micrograms of protein were loaded on 10% polyacrylamide gels. The gels were blotted onto nitrocellulose and stained with rabbit antibody to PARP-1 and Caspase-3 (both from Cell Signaling) and then visualized with goat, anti-rabbit HRP-conjugated antibody and HRP conjugated GAPDH.

The test system of data set [3] is parental (DU145) prostate cancer cells. The data set is described as above. The conditions noted are these: 48 hours after treatment. It is filed as cell-based. How it is done: as §1
Data set [4] has as its system PC3M-prostate cancer cells. Put plainly: Imaging of microtubule stability by tubulin staining and confocal microscopy. It is filed as cell-based, human. The conditions noted are these: PC3M cells, 24, 48 and 72 hours. How it is done:
Cells were seeded on glass coverslips. 24 hours later, cells were treated with compound OBD9. After the indicated times (24 hours, 48 hours, and 72 hours), cells were fixed with paraformaldehyde (4% in PBS), permeabilized Triton-X100 (0.02% in Phosphate buffered saline), then stained with mouse antibody to human tubulin (1:200 dilution) and then with 1:400 goat anti-mouse IgC (Invitrogen) and viewed via confocal microscopy at (63× objective).

SMILES strings stand for the structures.

One may read the viability as a read-out of living cells in per cent, often relative to untreated cells. Turning to `COC(=O)Nc1nc2cc(C(=O)c3ccc(N(C)C4COC4)cc3)ccc2[nH]1` [Compound 9], in data set [1], the viability at 1 µM came out at 34.9% and the viability at 10 µM is 34.3%. For the same compound, in the data set with tubulin, the “effect on tubulin polymerization” value is listed as “disrupts (inhibits) tubulin polymerization”. For the same compound, the “apoptosis induction (PARP-1, Caspase-3)” value in data set [2] is “induces apoptosis”. Further, in data set [3], the “apoptosis induction (PARP-1, Caspase-3)” value was “induces apoptosis”. Besides, in data set [4], the “effect on microtubule (tubulin) stability” value is reported as “interferes with microtubule (tubulin) stability”.
Consider `CCCSc1ccc2[nH]c(NC(=O)OCCN(C)C)nc2c1` [Compound 15], for which, in data set [1], the viability at 1 µM stood at 97.4% and the viability at 10 µM is 35.3%.
Taken in the same sequence, the figures for `CN(C)CCCOC(=O)Nc1nc2cc(C(=O)c3ccc(F)cc3)ccc2[nH]1` [Compound 17] were 93.9% and 84.8%.
Taken in the same sequence, the figures for `CCCSc1ccc2[nH]c(NC(=O)OCCCN(C)C)nc2c1` [Compound 16] were 90.1% and 90.3%.
Taken in the same sequence, the figures for `COC(=O)Nc1nc2cc(Oc3cccc(N4CCN(C)CC4)c3)ccc2[nH]1` [Compound 13] were 80.9% and 49.1%.
In data set [1], `COC(=O)Nc1nc2cc(Oc3cccc(N4CCN(C)CC4)n3)ccc2[nH]1` [Compound 12] came in with a viability at 1 µM of 94.5% and a viability at 10 µM of 35.2%.

For the origin of these results see patent publication US11697640B2, “Compounds for treating proliferative diseases” (Children's Medical Center Corporation, priority 2015, dated 2023).
